# According to patent US4308269A, “Maytansinoids, pharmaceutical compositions thereof and method of use thereof” (Takeda Chemical Industries, Ltd., priority 1979, dated 1981):
# How the values were obtained:
# [1] = tested on: melanoma B-16 tumor cells; assay: Antitumor activity, B-16 melanoma transplanted intraperitoneally in mice (NCI protocol 1,300), life span prolongation; format: in vivo; conditions: intraperitoneally once daily for 9 consecutive days
# Description: Therapeutic tests were carried out in mice according to NCI-protocol 1,300, Cancer Chemother, Reports, Part 3, 1972, Vol. 3, No. 2, in which melanoma B-16 tumor cells had been intraperitoneally transplanted, compound (I) being administered intraperitoneally once daily for 9 consecutive days.
# [2] = tested on: Tetrahymena pyriformis W; assay: Antiprotozoal activity, growth inhibition by the serial dilution method; format: cell-based; conditions: 28° C., 44 to 48 hours, pH 7.0
# Description: Antioprotozoal activity of compound (I) was assayed with Tetrahymena pyriformis W as the test organism and a medium composed of 20 g tryptose-peptone (Difco Co.), 1 g yeast extract, 2 g glucose, 1000 ml distilled water, 10 ml 1 M phosphate buffer (pH 7.0) as the assay medium. The micoorganism was incubated at 28° C. for 44 to 48 hours and the growth inhibitory activity of compound (I) was assayed by the serial dilution method.
smiles,measurement,setting,value
"COc1cc2cc(c1Cl)N(C)C(=O)CC(OC(=O)C(N)c1ccccc1)C1(C)OC1C(C)C1CC(O)(NC(=O)O1)C(OC)/C=C/C=C(\C)C2 (single isomer, unassigned) [maytansinol 3-α-aminophenylacetate]",Antitumor activities B-16 (T/C%),[1]; dose 100 μg/kg,208%
same,Antitumor activities B-16 (T/C%),[1]; dose 400 μg/kg,208%
same,Antitumor activities B-16 (T/C%),[1]; dose 800 μg/kg,208%
same,MIC,[2],10 to 20 mg/L
